From BigSolDB 2.1

Cl.Cl.Fc1ccc(C(c2ccc(F)cc2)N2CCN(C/C=C/c3ccccc3)CC2)cc1
solubility (mole fraction)
Conditions | in acetone | in acetonitrile | in ethanol | in ethyl acetate | in isobutanol | in isopropanol | in methanol | in methyl acetate | in n-butanol | in n-propanol
293.15 K | 0.00271 | 0.00219 | 0.00522 | 0.00146 | 0.00186 | 0.0026 | 0.00604 | 0.00133 | 0.00185 | 0.00472
298.15 K | 0.00338 | 0.00275 | 0.00649 | 0.00184 | 0.00236 | 0.00328 | 0.0076 | 0.00168 | 0.00236 | 0.00587
303.15 K | 0.00422 | 0.00343 | 0.00792 | 0.00229 | 0.00296 | 0.00406 | 0.00934 | 0.00211 | 0.00296 | 0.00714
308.15 K | 0.00518 | 0.00428 | 0.00975 | 0.00285 | 0.00371 | 0.00501 | 0.0115 | 0.00263 | 0.00372 | 0.00877
313.15 K | 0.00638 | 0.00528 | 0.0119 | 0.00353 | 0.00462 | 0.00618 | 0.0139 | 0.00326 | 0.00464 | 0.0108
318.15 K | 0.0078 | 0.00651 | 0.0145 | 0.00434 | 0.00573 | 0.00756 | 0.017 | 0.004 | 0.00575 | 0.013
323.15 K | 0.00948 | 0.008 | 0.0176 | 0.0053 | 0.00711 | 0.00919 | 0.0207 | 0.00494 | 0.00712 | 0.0157
328.15 K | 0.0115 | 0.00977 | 0.0211 | 0.00644 | 0.00873 | 0.0112 | 0.025 | 0.00603 | 0.00875 | 0.0189
333.15 K | 0.0139 | 0.0119 | 0.0252 | 0.00782 | 0.0106 | 0.0136 | 0.0298 | 0.00736 | 0.0107 | 0.0225
